A short description of series [1]: Liposome leakage assay, POPC/cholesterol 3:2 liposomes. It is filed as biochemical. To be noted: for liposome leakage activity / calcein release: POPC/chol liposomes, pH 7. The text has this:
FIG. 9: Liposome leakage assay. […] Emitted fluorescence was plotted against peptide concentration. […] C) Comparison of ppTG1, ppTG20 and ppTG21 at pH 7.
Leakage activity was plotted against peptide concentration.

For another series, the system named is HeLa cells. Kind of series: Transfection in vitro, luciferase plasmid pTG11236. It is filed as cell-based. To be noted: for transfection / gene transfer efficiency in vitro: 50 ng pTG11236, increasing amounts of peptide, day 1. Here is the method:
Cells were plated on 24 well plates at a density of 4×10^4 (293-EBNA ) or 7×10^4 (HeLa, Renca) cells/well in DMEM supplemented with 10% FCS. The next day, the medium was replaced by 200 μl serum-free DMEM and plasmid (PTG11056 or pTG11236)/peptide complexes or plasmid/peptide/lipid complexes were prepared in 30 μl 0.9% NaCl or 5% glucose. After 20 min at room temperature these complexes were added to the cells which were then incubated for 2-3 h at 37° C. and 5% CO2 before 1 ml serum-containing DMEM was added. Approximately 20 hours later, cells were lysed by addition of 100 μl 1× Promega lysis buffer, 20 μl of the lysates were analysed for luciferase activity. Proteins were quantified with the bicinchonic acid (BCA) colorimetric method (Smith, Anal. Biochem. 150 (1985), 76-85). […]
HeLa cells were seeded at a density of 6×10^4 cells on 24 well plates. The next day, cells were incubated with 200 μl serum-free medium, 30 μl of plasmid (50 ng)/peptide/lipid mixtures were added and incubated for 3 h at 37° C. in 5% CO2. 1 ml of DMEM+10% FCS was then added. The next day, the medium was removed and cells were washed with 500 μl of PBS and subsequently treated with 100 μl of Promega lysis buffer. Plates were stored at −80° C. until luciferase activity was measured of 20 μl of the cell lysate. The protein assay was performed using the Pierce BCA kit.
JTS1 was dissolved to 1 mg/ml in 1 mM NaOH and mixed with DNA diluted in 5% glucose. ppTG1 was then added to this solution. The pcTG90/DOPE ppTG1 mixtures were prepared as described in Example 6. Transfection assays were performed on HeLa cells with 50 ng of plasmid as described in Example 6.
The series of ppTG1 derivatives listed in Material and Methods were tested for their gene transfer efficiencies in Hela cells. 6×10^4 cells were transfected with 50 ng pTG11236 complexed with increasing amounts of peptide. Luciferase activity was analyzed day 1 after transfection. The results are shown in FIG. 10B (ppTG20, ppTG21), FIG. 10C (ppTG25, ppTG26, ppTG27), FIG. 10D (ppTG28 to ppTG33), FIG. 10E (PEG-ppTG1 and PEG-ppTG20), FIG. 10F (ppTG22 to ppTG24) and FIG. 10G (ppTG20-D).

The conditions of series [2]: pH 5 versus pH 7; cited from earlier work.
Series [3] can be described thus: Liposome leakage assay, POPC/cholesterol 3:2 liposomes. It is filed as biochemical. To be noted: POPC/chol liposomes, pH 5.
Another series relates to plasmid pTG11236. Briefly: Gel retardation assay (DNA binding activity). Here is the method: 3 μg of the plasmid pTG11236 were incubated with increasing amounts of the respective peptide in a final volume of 30 μl with 0.9% NaCl. After 20 min of incubation at room temperature, 6 μl 5× loading buffer (glycerol and bromphenol blue in TAE buffer) were added and 10 μl of these solutions were analyzed on a 1% agarose gel in the presence of ethidium bromide.
The ability of ppTG1 peptide to complex DNA was analyzed by gel retardation assays. […] After 20 minutes incubation at room temperature, loading buffer was added and 10 μl of the resulting solution were analyzed on a 1% agarose gel.
ppTG1 derivatives as they are indicated in Materials and Methods, were tested for their capacity to bind plasmid DNA by gel retardation assays.

Another series concerns B6SJL mice, lungs. Briefly: In vivo gene transfer after intravenous injection, luciferase activity in the lungs. To be noted: pTG11236/peptide complexes intravenously injected; for gene transfer efficiency in the lung: luciferase day 1. Here is the method: Mice were sacrificed at day 1.
Lungs were tested for luciferase activity.

The test system of the next series is RENCA tumors. Kind of series: In vivo gene transfer after intratumoral injection, luciferase activity in tumors. Also on record: species or system B6D2 mice. To be noted: 10 μg pTG11236, peptide at pH 8, intratumoral, day 1. Here is the method: 4×10^5 RENCA cells (murine kidney tumor cells, ATCC) were injected subcutaneously into B6D2 mice to provoke tumor growth. When tumors reached a size of approximatively 30 mm^3, 30 μl of a 5% glucose solution, containing the luciferase expression plasmid DNA pTG11236 in presence or absence of peptide of the present invention were injected into the tumors. Mice were sacrificed at day 1 after injection, tumors were recovered and homogeinized. Luciferase activity was analyzed and expressed as RLU/g tumor.
The peptide ppTG21 was tested for its capacity to enhance plasmid transfer after intratumoral injection in RENCA tumor-bearing mice. Ten μg of the luciferase expression plasmid pTG11236 were mixed with increasing amounts (i.e. 0.1, 0.6, 3 or 15 micrograms) of ppTG21 at pH 8 (10 mM Tris pH 8). […] In paralell, experiments have been conducted in identical conditions by administering the same plasmid DNA in the presence of increasing amounts (i.e. 0.1%, 0.2%, 0.4% and 0.6 %) of HPC (Hexadecyl-phospho-choline). Plasmid DNA alone, or plasmid DNA in the presence of HPC or ppTG21 were intratumorally injected in similar conditions. Next day, luciferase activities in the tumors was determined (RLU/g tumour).

[4] abbreviates: 50 ng pTG11236 complexed with 0.9 μg ppTG1 and 0.1 μg JTS1, final charge ratio 5.

“Also recorded” adds a separate entry of the source. Square brackets hold non-standard residues; d marks the D form. Ends that are not written are not given here.

Take CGLFKALLKLLKSLWKLLLKA: the “liposome leakage activity / calcein release” value in series [1] was “slightly reduced”.

“CGLFKALLKLLKSLWKLLLKAC (cysteine pairing not given here)”: the “liposome leakage activity / calcein release” value in series [1] is reported as “slightly reduced”.

With GIFKAIIKIIKSIWKIIIKA, the “transfection / gene transfer efficiency in vitro” value with HeLa cells (HeLa cells) is on record as “diminished; also recorded: reduced”.

Turning to GIFRAIIRIIRSIWRIIIRA, the “liposome leakage activity / calcein release” value in series [1] is recorded as “slightly reduced”. For the same substance, in the series on HeLa cells (HeLa cells), the “transfection / gene transfer efficiency in vitro” value is on record as “diminished; also recorded: reduced”.

“GLFEALLELLESLWELLLEA [reference compound]”: the “liposome leakage activity / calcein release” value is “reduced” in series [1] and “high lysis activity” in series [3]. Besides, in series [2], the “lysing of calcein containing phosphatidylcholine liposomes” value is “more efficiently than at a pH 7”. The “increase of luciferase activity versus best formulation of ppTG1/pcTG90/DOPE” value with HeLa cells (setting [4]) is listed as “about 10 factor”. The “increase of luciferase activity versus pcTG90/DOPE alone” value with HeLa cells (setting [4]) is on record as “about 1000 factor”.

“GLFEALLELLESLWELLLEACCYKAKKKKKKKKWKKKKQS (cysteine pairing not given here) [reference compound]”: the “retardation of pTG11236” value with plasmid pTG11236 (3 μg (0.6 nmol) peptide, 3 μg pTG11236) was greater than 95%. The “liposome leakage activity / calcein release” value in series [1] was “impeded in calcein release”; in series [3] it was “low level release”. For the same substance, in the series with HeLa cells (0.05 μg plasmid DNA), the transfection entry is on record as “remains low”. Further, the “gene transfer efficiency in the lung” value in the series with B6SJL mice, lungs is listed as “low”.

On to GLFHALLHLLHSLWHLLLHA, for which the “gene expression (luciferase) in tumors after co-injection with plasmid” value with RENCA tumors was “increase of apparent gene expression; also recorded: dramatic improvement of the nucleic acid transfer efficiency”. In addition, the “binding to plasmid DNA” value in the series on plasmid pTG11236 (pH 5) is on record as “binds plasmid DNA; also recorded: can bind DNA”; in the series on plasmid pTG11236 (pH 8), “not capable to bind to plasmid DNA”. Besides, in series [1], the “liposome leakage activity / calcein release” value was “comparable to ppTG1”. Also, the “transfection / gene transfer efficiency in vitro” value in the series with HeLa cells (HeLa cells) is “strongly reduced”.

In the case of GLFKKLLKLLKKLWKLLLKA, in series [1], the “liposome leakage activity / calcein release” value was “comparable to ppTG1 and ppTG20; also recorded: slightly reduced”. Also, in the series with HeLa cells (HeLa cells), the “transfection / gene transfer efficiency in vitro” value was “comparable to ppTG1 and ppTG20; also recorded: did not change”.

GLFRALLRLLRSLWRLLLRA [ppTG20]: the “toxicity” value in the series with B6SJL mice, lungs is “less toxic than ppTG1”.

Consider GLFRRLLRLLRRLWRLLLRA, for which, in series [1], the “liposome leakage activity / calcein release” value is “comparable to ppTG1 and ppTG20; also recorded: slightly reduced”. In addition, the “transfection / gene transfer efficiency in vitro” value with HeLa cells (HeLa cells) is “comparable to ppTG1 and ppTG20; also recorded: did not change”.

In the case of GVFKAVVKVVKSVWKVVVKA, the “liposome leakage activity / calcein release” value in series [1] is “diminished; also recorded: significantly reduced”. In the series with HeLa cells (HeLa cells), the “transfection / gene transfer efficiency in vitro” value was “diminished”. Further, the “gene transfer efficiency in the lung” value with B6SJL mice, lungs is reported as “drastically reduced; also recorded: did not lead to detectable reporter gene expression”.

For the substance GVFRAVVRVVRSVWRVVVRA, the “liposome leakage activity / calcein release” value in series [1] is recorded as “diminished; also recorded: significantly reduced”. The “transfection / gene transfer efficiency in vitro” value in the series with HeLa cells (HeLa cells) was “diminished”.

In the case of “Gly-Leu-Phe-Arg-Ala-Leu-Leu-Arg-Leu-Leu-Arg-Ser-Leu-Trp-Arg-Leu-Leu-Leu-Arg-Ala (G[dL][dF][dR][dA][dL][dL][dR][dL][dL][dR][dS][dL][dW][dR][dL][dL][dL][dR][dA]) [ppTG20-D]”, the “liposome leakage activity / calcein release” value in series [1] was “retained”. Further, in the series with HeLa cells (HeLa cells), the “transfection / gene transfer efficiency in vitro” value is “retained; also recorded: as efficient as ppTG1”. In addition, in the series with B6SJL mice, lungs, the “gene transfer efficiency in the lung” value was “even higher than with ppTG1; also recorded: even more efficient than ppTG20”.

As for “WEAKLAKALAKALAKHLAKALAKALKACEA [reference compound]”, in series [1] (POPC/Chol (3:2) liposomes, pH not separated (compared at pH 5 and pH 7)), the “liposome leakage activity” value is reported as “no activity; also recorded: could not liberate calcein”. Further, the “gene transfer at optimal charge ratio lower than for ppTG1” value is 200 fold in the series on HeLa cells (50 ng pTG11236) and 4 fold in the series on HeLa cells (500 ng pTG11236). For the same substance, the “best (optimal) charge ratio for gene transfer” value in the series on HeLa cells (HeLa cells, 50 ng and 500 ng pTG11236) was found to be 7. Further, the “gene transfer efficiency in the lung” value with B6SJL mice, lungs was “undetectable; also recorded: inefficient”.

(Values after US20040132188A1, “Use of non-complexing peptides for the preparation of a composition for transfection of a polynucleotide into a cell and compositions useful in gene therapy” (priority 2001, published 2004).)
